The assay concerns PTX-resistant H460/PV2-7 cells. Put plainly: Inhibitory effect on growth of PTX-resistant tumor cell line highly expressing TUBB3 (in vitro). It counts as cell-based, human. As to conditions: for Resistance rate: H460/PV2-7 versus parent line H460; for IC50: Homo sapiens, NCI-H460, H460/PV2-7 cells, 96 hours culture, WST-8. In general terms: Formazan colour is commonly taken as a measure of viable cells.

Structures are written as SMILES.

For the compound `CC(=O)O[C@@]12CO[C@@H]1C[C@H](O)[C@@]1(C)C(=O)[C@H](O)C3=C(C)[C@@H](OC(=O)[C@H](O)[C@@H](NC(=O)OC(C)(C)C)c4ccccc4)C[C@@](O)([C@@H](OC(=O)c4ccccc4)[C@H]21)C3(C)C` [Docetaxel, docetaxel], the Resistance rate is given as 2.6 and inhibition was half-maximal at 4 nM (IC50).

`CO[C@H]1C(=O)[C@]2(C)[C@@H](OC)C[C@H]3OC[C@@]3(OC(C)=O)[C@H]2[C@H](OC(=O)c2ccccc2)[C@]2(O)C[C@H](OC(=O)[C@H](O)[C@@H](NC(=O)OC(C)(C)C)c3ccccc3)C(C)=C1C2(C)C` [Cabazitaxel, cabazitaxel]: the Resistance rate is 3.2 and 4 nM corresponded to half-maximal inhibition (IC50).

Take `CC(=O)O[C@H]1C(=O)[C@@]2(C)[C@H]([C@H](OC(=O)c3ccccc3)[C@]3(O)C[C@H](OC(=O)[C@H](O)[C@@H](NC(=O)c4ccccc4)c4ccccc4)C(C)=C1C3(C)C)[C@]1(OC(C)=O)CO[C@@H]1C[C@@H]2O` [Paclitaxel, paclitaxel, reference compound]: the Resistance rate is listed as 4.6 and the IC50 was 16.5 nM. The Resistance rate entry (listed as PTX) is “approximately 4.6”.

Consider `Cc1c(-c2nnn(CCO)n2)[nH]c(C(C)O)c1C(=O)c1cccc(Br)c1` (stereo not shown) [Compound 123, (3-bromophenyl)(2-(1-hydroxyethyl)-5-(2-(2-hydroxyethyl)-2H-tetrazol-5-yl)-4-methyl-1H-pyrrol-3-yl)methanone], for which the Resistance rate is reported as 0.31 and the IC50 came to 21 nM.

As to `Cc1c(-c2nnn(CCO)n2)[nH]c(CO)c1C(=O)c1cccc(Br)c1` [Compound 121, (3-bromophenyl)(5-(2-(2-hydroxyethyl)-2H-tetrazol-5-yl)-2-(hydroxymethyl)-4-methyl-1H-pyrrol-3-yl)methanone], the Resistance rate amounted to 0.27 and half-maximal inhibition (IC50) required 20.6 nM.

In the case of `CNC(=O)c1[nH]c(-c2nnn(CCO)n2)c(C)c1C(=O)c1cccc(Br)c1` [Compound 142, 3-(3-bromobenzoyl)-5-(2-(2-hydroxyethyl)-2H-tetrazol-5-yl)-N,4-dimethyl-1H-pyrrole-2-carboxamide], the Resistance rate is 0.29 and the IC50 was determined as 108 nM.

One may read the IC50 as the point on the concentration scale where inhibition reaches its midpoint. Low readings indicate greater potency, high ones weaker potency.

The values above are taken from patent US20140343017A1, “PYRROLE COMPOUND” (Kabushiki Kaisha Yakult Honsha, priority 2012, published 2014).
